According to patent publication EP1038516A1, “Cosmetic composition comprising kynurenine” (Uchikuga, Saburoh, priority 1999, dated 2000):
“And” between values parts separate entries of the source, which are not always exact repeats. Equal entries are not always repeated.

How the values were obtained:
[1] = Ultraviolet absorption (maximum absorption wavelength and molecular extinction coefficient); assay type: physicochemical; settings: for Maximum absorption wavelength (λmax): UV-A region (320 to 380 nm); for Molecular extinction coefficient (ε): at λmax in the UV-A region
Description: The properties of kynurenine and the derivative thereof are collectively shown below in Table 1, along with the properties of "Palsole A". As apparently shown in the table and Fig. 1, the maximum absorption lengths (λmax) of kynurenine and the derivative thereof preferably reside in 360 to 365 nm in the UV-A region (320 to 380 nm) with the highest risk of direct darkening of skin. Kynurenine has a molecular extinction coefficient (ε) functioning as a marker of the intensity of ultraviolet absorption (ε = 4,000), which is about 1/10 of the commercially available Palsole A (ε = 36,000). […] Accordingly, such large quantity considered abnormal is required to be blended. Table 1 In addition to the UV-A region, kynurenine and the derivative thereof have the maximum absorption wavelength at 253 nm with the molecular extinction coefficient of 6,700. In other words, kynurenine and the derivative thereof exert absorption in the UV-C region ([…]). The ultraviolet ray in the UV-C region is generally absorbed in the ozone layer and therefore never reaches ground surface, so the absorption in the region is not meaningful as cosmetics. Kynurenine and the derivative thereof never exert absorption in the UV-B region (290 to 320 nm) in the erythema curve region with the highest risk in sunlight. Thus, an effect on the prevention of erythema against ultraviolet ray in the UV-B region cannot be expected.

[2] = tested on: 5 bacterial strains; assay: Ames test (mutagenicity); assay type: cell-based
Description: The kynurenine represented by the general formula I and substances relating thereto are metabolic intermediates of tryptophan and are essentially present in biological organisms; and the kynurenine and substances relating thereto are contained at particularly large quantities in the eyes of human new born babies and infants but are decreased over aging [J. Biochem., Vol. 89, 103 (1981)], and have therefore no safety problem.
The generated brown pigment is present in the eye, skin and wing of Arthropoda and Mollusca. The brown pigment is also contained in human eye. Because the brown pigment is widely distributed in animals in such manner, the generated pigment is greatly safe. The brown pigment (xanthommatin) was chemically synthesized according to the method in Angew. Chem., 69, Jahrg. 16 (1957) and subjected to Ames test.

[3] = tested on: tyrosinase; assay: Test Example 1: disappearance of kynurenine / 3-hydroxykynurenine and pigment generation with tyrosinase and dopa or tyrosine; assay type: biochemical; settings: 3.5 hours; for disappearance of kynurenine or 3-hydroxykynurenine: assayed at 355 nm
Procedure: 5 units of tyrosinase, 2.5 µmol of dopa or tyrosine, and 1 mg of kynurenine sulfate salt or 3-hydroxykynurenine dihydrate were dissolved in 0.1M phosphate buffer, pH 7.0 to a final volume of 5 ml and the resulting solution was agitated at ambient temperature for 3.5 hours; thereafter, the disappearance of kynurenine or 3-hydroxykynurenine was assayed at 355 nm, which corresponds to the λmax of kynurenine and 3-hydroxykynurenine in UV-A. The contents of the individual tests are shown below in Table 2. Table 2 [table]

[4] = tested on: tyrosinase; assay: Tyrosinase activity-inhibiting effect; assay type: biochemical
Description: It was expectantly assumed that kynurenine and the derivative thereof inhibited tyrosinase and thereby suppressed the generation of black melanin so that kynurenine and the derivative thereof could be utilized as an ingredient for preventing spot and freckle and the deposition of pigments.

[5] = Tests 1 and 2: tyrosinase +, dopa/tyrosine +, air +, pH 7.0, ambient temperature

SMILES | Maximum absorption wavelength (λmax) [1] [nm] | Molecular extinction coefficient (ε) [1] | mutagenicity [2] | disappearance of kynurenine or 3-hydroxykynurenine ([3]; Test 3: tyrosinase with thermal treatment, dopa/tyrosine +, air +) | disappearance of kynurenine or 3-hydroxykynurenine ([3]; Test 4: tyrosinase +, no dopa/tyrosine, air +) | pigment generation [3, 5] | disappearance of kynurenine or 3-hydroxykynurenine [3, 5] | molecular extinction coefficient (ε) relative to Palsole A ([1]; UV-A region) | tyrosinase-inhibiting ability [4] | disappearance of kynurenine or 3-hydroxykynurenine ([3]; Test 5: tyrosinase +, dopa/tyrosine +, no air)
COc1ccc(C(=O)CC(=O)c2ccc(C(C)(C)C)cc2)cc1 [Palsole A, reference compound] | 355 | 36,000 and 35,000 |  |  |  |  |  |  |  | 
NC(CC(=O)c1cccc2oc3cc(=O)c4[nH]c(C(=O)O)cc(=O)c4c-3nc12)C(=O)O (stereo not drawn) [xanthommatin] |  |  | No mutagenicity was observed |  |  |  |  |  |  | 
Nc1c(O)cccc1C(=O)CC(N)C(=O)O (stereo not drawn) [3-hydroxykynurenine] | 355 |  |  | no disappearance of 3-hydroxykynurenine observed. | no disappearance of 3-hydroxykynurenine observed. | pigment generated | disappeared |  |  | 
Nc1ccccc1C(=O)CC(N)C(=O)O (stereo not drawn) [kynurenine] | 355 | 4,000 |  |  |  | pigment generated | disappeared | about 1/10 | never has any ability of tyrosinase inhibition or has the ability insufficiently | no disappearance of kynurenine observed.
